System: 786-0 complex spheroids with HUVEC/MSC, growth % test/control
Experiment: Anticancer human tumor 786-0 cell line growth inhibition [AhR];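 note: compound exposure lasted seven days before the read-out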
Settings: for IC50: curve of first compound; for viability, T/C: stronger effect = lower value
From the text: Multicellular complex tumor spheroid response to aryl hydrocarbon receptor antagonists in combination with a variety of drugs and investigational agents in selected tumor cell lines
The current study was undertaken to assess response to aryl hydrocarbon receptor antagonists in combination with standard-of-care drugs and investigational agents in solid tumor complex spheroid models. Complex spheroids include a stromal component modeled by human endothelial cells (HUVEC) and fibroblasts modeled by human mesenchymal stem cells (MSCs). The concentration ranges selected for each drug and investigational agent were based upon clinically achievable concentrations if the clinical Cmax of the agent was known.
Compounds. The drugs and investigational agents: BAY 2416964 (NSC825713), GNF351 (NSC835774), CH-223191 (NSC835775), CPI-455 (NSC825282), aza-TdCyd (NSC777586), decitabine (NSC127716), belinostat (NSC758774), entinostat (NSC756642), pevonedistat (NSC761192), tazemetostat (NSC777109), talazoparib (NSC765396), olaparib (NSC753686), selinexor (NSC780203), nedisertib (M3814, NSC802822), bortezomib (NSC756655), venetoclax (NSC766270), doxorubicin (NSC123127), elimusertib (BAY189344, NSC800525), ceralasertib (AZD6738, NSC777638), TAK-243 (NSC785004), alisertib (NSC759677), etoposide (NSC141540), topotecan (NSC609699), eribulin (NSC707389), gemcitabine (NSC613327), carboplatin (NSC241240), cisplatin (NSC119875), and SN-38 (NSC673596) were obtained from the National Cancer Institute (NCI) Developmental Therapeutics Program Chemical Repository (32). The FDA-approved anticancer drug set is available from the Developmental Therapeutics Program at https://dtp.cancer.gov/organization/dscb/obtaining/available plates.htm. […] The stock solutions were prepared in dimethyl sulfoxide (DMSO, Sigma-Aldrich, St. Louis, MO, cat. D2650), except for the platinum compounds which were prepared in saline (Quality Biological, Gaithersburg, MD, cat. 114-055-101), at 800-fold the tested concentration and stored at -70 degrees C prior to their use. All drugs and investigational agents were tested over a range starting from a high concentration at or near the clinical Cmax and decreasing in half-log increments. If the clinical Cmax for an agent had not been determined, the highest concentration tested was 10 microM (Table 1).
Cell Culture. All cells were maintained in an incubator at 37 degrees C and 5% CO2 with 95% humidity. The PDC lines were cultured according to standard operating procedures established by the NCI PDMR (https://pdmr.cancer.gov). Briefly, all PDCs were thawed and cultured in Matrigel-coated flasks prepared with a working solution of 1X Ham's F-12 nutrient mix, without supplementation (Invitrogen, Waltham, MA, cat. 11765054), 100 U/mL penicillin-streptomycin (Invitrogen, cat. 15140122), and 2.5% Matrigel (Corning Inc., Corning, NY, cat. 354248) for the first three passages. All PDCs were cultured in complete DMEM/F-12 media containing advanced DMEM/F-12 (Invitrogen, cat. 12634028), 4.9% defined fetal bovine serum, heat inactivated (HyClone Laboratories Inc., Logan, UT, cat. SH30070.03HI), 389 ng/mL hydrocortisone (Sigma-Aldrich, cat. H4001), 9.7 ng/mL human EGF recombinant protein (Invitrogen, cat. PHG0313), 23.4 microg/mL adenine (Sigma-Aldrich, cat. A2786), 97.3 U/mL penicillin-streptomycin (Invitrogen, cat. 15140122), 1.9 mM L-glutamine (Invitrogen, cat. 25030081), and 9.7 microM Y-27632 dihydrochloride (Tocris Bioscience, Bristol, United Kingdom, cat. 1254). The PDCs were cultured in complete DMEM/F12 media without 10 microM Y-27632 dihydrochloride for at least two passages prior to the screen. The established cell lines NCI-H1341 and […] were cultured in DMEM/F-12, HEPES (Invitrogen, cat. 11330032), 5% defined fetal bovine serum (HyClone Laboratories Inc., cat. SH30070.03), ITS premix universal culture supplement [insulin (5 microg/mL), transferrin (5 microg/mL), and selenious acid (5 ng/mL)] […]

[1] = second compound 0.1 µM, first compound 0.0316 µM
[2] = second compound 0.1 µM, first compound 0.1 µM
[3] = second compound 0.316 µM, first compound 0.0316 µM
[4] = second compound 0.316 µM, first compound 0.1 µM
[5] = second compound 1 µM, first compound 0.0316 µM
[6] = second compound 1 µM, first compound 0.1 µM
[7] = second compound 3.16 µM, first compound 0.0316 µM
[8] = second compound 3.16 µM, first compound 0.1 µM
[9] = second compound 10 µM, first compound 0.0316 µM
[10] = second compound 10 µM, first compound 0.1 µM

CC[C@@]1(O)C(=O)OCc2c1cc1n(c2=O)Cc2cc3c(CN(C)C)c(O)ccc3nc2-1 + CC(CO)NC(=O)c1cc(-c2ccc(Cl)cc2)nn(-c2cnn(C)c2)c1=O
IC50 (second compound 0.1 µM): 59 nM | IC50 (second compound 0.316 µM): 57.6 nM | IC50 (second compound 1 µM): 60.8 nM | IC50 (second compound 3.16 µM): 53.6 nM | IC50 (second compound 10 µM): 51.8 nM | viability, T/C (second compound 0.1 µM, first compound 0.000316 µM): 112% | viability, T/C (second compound 0.1 µM, first compound 0.001 µM): 119% | viability, T/C (second compound 0.1 µM, first compound 0.00316 µM): 111% | viability, T/C (second compound 0.1 µM, first compound 0.01 µM): 115% | viability, T/C [1]: 90.9% | viability, T/C [2]: 15.2% | viability, T/C (second compound 0.316 µM, first compound 0.000316 µM): 106% | viability, T/C (second compound 0.316 µM, first compound 0.001 µM): 114% | viability, T/C (second compound 0.316 µM, first compound 0.00316 µM): 112% | viability, T/C (second compound 0.316 µM, first compound 0.01 µM): 109% | viability, T/C [3]: 89.9% | viability, T/C [4]: 13.3% | viability, T/C (second compound 1 µM, first compound 0.000316 µM): 113% | viability, T/C (second compound 1 µM, first compound 0.001 µM): 107% | viability, T/C (second compound 1 µM, first compound 0.00316 µM): 108% | viability, T/C (second compound 1 µM, first compound 0.01 µM): 104% | viability, T/C [5]: 95.4% | viability, T/C [6]: 15.2% | viability, T/C (second compound 3.16 µM, first compound 0.000316 µM): 113% | viability, T/C (second compound 3.16 µM, first compound 0.001 µM): 116% | viability, T/C (second compound 3.16 µM, first compound 0.00316 µM): 109% | viability, T/C (second compound 3.16 µM, first compound 0.01 µM): 109% | viability, T/C [7]: 80.9% | viability, T/C [8]: 13.4% | viability, T/C (second compound 10 µM, first compound 0.000316 µM): 118% | viability, T/C (second compound 10 µM, first compound 0.001 µM): 116% | viability, T/C (second compound 10 µM, first compound 0.00316 µM): 118% | viability, T/C (second compound 10 µM, first compound 0.01 µM): 113% | viability, T/C [9]: 76.9% | viability, T/C [10]: 14.1%

CCc1c2c(nc3ccc(O)cc13)-c1cc3c(c(=O)n1C2)COC(=O)[C@]3(O)CC + CC(CO)NC(=O)c1cc(-c2ccc(Cl)cc2)nn(-c2cnn(C)c2)c1=O
IC50 (second compound 0.1 µM): 5.22 nM | IC50 (second compound 0.316 µM): 4.94 nM | IC50 (second compound 1 µM): 4.22 nM | IC50 (second compound 3.16 µM): 3.06 nM | IC50 (second compound 10 µM): 2.22 nM | viability, T/C (second compound 0.1 µM, first compound 0.000949 µM): 98.5% | viability, T/C (second compound 0.1 µM, first compound 0.003 µM): 82.1% | viability, T/C (second compound 0.1 µM, first compound 0.00949 µM): 15.3% | viability, T/C (second compound 0.1 µM, first compound 0.03 µM): 5.93% | viability, T/C (second compound 0.1 µM, first compound 0.0949 µM): 2.72% | viability, T/C (second compound 0.1 µM, first compound 0.3 µM): 2.09% | viability, T/C (second compound 0.316 µM, first compound 0.000949 µM): 88% | viability, T/C (second compound 0.316 µM, first compound 0.003 µM): 75.5% | viability, T/C (second compound 0.316 µM, first compound 0.00949 µM): 16.6% | viability, T/C (second compound 0.316 µM, first compound 0.03 µM): 5.34% | viability, T/C (second compound 0.316 µM, first compound 0.0949 µM): 3.26% | viability, T/C (second compound 0.316 µM, first compound 0.3 µM): 2.5% | viability, T/C (second compound 1 µM, first compound 0.000949 µM): 96.8% | viability, T/C (second compound 1 µM, first compound 0.003 µM): 65% | viability, T/C (second compound 1 µM, first compound 0.00949 µM): 14.1% | viability, T/C (second compound 1 µM, first compound 0.03 µM): 6.51% | viability, T/C (second compound 1 µM, first compound 0.0949 µM): 3.19% | viability, T/C (second compound 1 µM, first compound 0.3 µM): 2.39% | viability, T/C (second compound 3.16 µM, first compound 0.000949 µM): 81.5% | viability, T/C (second compound 3.16 µM, first compound 0.003 µM): 50.7% | viability, T/C (second compound 3.16 µM, first compound 0.00949 µM): 14.6% | viability, T/C (second compound 3.16 µM, first compound 0.03 µM): 5.63% | viability, T/C (second compound 3.16 µM, first compound 0.0949 µM): 2.91% | viability, T/C (second compound 3.16 µM, first compound 0.3 µM): 2.49% | viability, T/C (second compound 10 µM, first compound 0.000949 µM): 81.4% | viability, T/C (second compound 10 µM, first compound 0.003 µM): 39% | viability, T/C (second compound 10 µM, first compound 0.00949 µM): 14% | viability, T/C (second compound 10 µM, first compound 0.03 µM): 6.45% | viability, T/C (second compound 10 µM, first compound 0.0949 µM): 3.27% | viability, T/C (second compound 10 µM, first compound 0.3 µM): 2.66%

Nc1ccn(C2OC(CO)C(O)C2(F)F)c(=O)n1 (stereo not given) + CC(CO)NC(=O)c1cc(-c2ccc(Cl)cc2)nn(-c2cnn(C)c2)c1=O
IC50 (second compound 0.1 µM): < 31.6 nM | IC50 (second compound 0.316 µM): < 31.6 nM | IC50 (second compound 1 µM): < 31.6 nM | IC50 (second compound 3.16 µM): < 31.6 nM | IC50 (second compound 10 µM): < 31.6 nM | viability, T/C [1]: 4.79% | viability, T/C [2]: 4.46% | viability, T/C (second compound 0.1 µM, first compound 0.316 µM): 2.56% | viability, T/C (second compound 0.1 µM, first compound 1 µM): 4.39% | viability, T/C (second compound 0.1 µM, first compound 3.16 µM): 3.18% | viability, T/C (second compound 0.1 µM, first compound 10 µM): 4.27% | viability, T/C [3]: 5.24% | viability, T/C [4]: 4.16% | viability, T/C (second compound 0.316 µM, first compound 0.316 µM): 4.42% | viability, T/C (second compound 0.316 µM, first compound 1 µM): 3.7% | viability, T/C (second compound 0.316 µM, first compound 3.16 µM): 4.85% | viability, T/C (second compound 0.316 µM, first compound 10 µM): 6.51% | viability, T/C [5]: 5.01% | viability, T/C [6]: 3.82% | viability, T/C (second compound 1 µM, first compound 0.316 µM): 4.34% | viability, T/C (second compound 1 µM, first compound 1 µM): 4.23% | viability, T/C (second compound 1 µM, first compound 3.16 µM): 4.33% | viability, T/C (second compound 1 µM, first compound 10 µM): 4.11% | viability, T/C [7]: 5.21% | viability, T/C [8]: 4.49% | viability, T/C (second compound 3.16 µM, first compound 0.316 µM): 4.44% | viability, T/C (second compound 3.16 µM, first compound 1 µM): 4.62% | viability, T/C (second compound 3.16 µM, first compound 3.16 µM): 4.8% | viability, T/C (second compound 3.16 µM, first compound 10 µM): 5.89% | viability, T/C [9]: 4.43% | viability, T/C [10]: 3.72% | viability, T/C (second compound 10 µM, first compound 0.316 µM): 4.66% | viability, T/C (second compound 10 µM, first compound 1 µM): 4.02% | viability, T/C (second compound 10 µM, first compound 3.16 µM): 5.31% | viability, T/C (second compound 10 µM, first compound 10 µM): 6.31%

— PubChem BioAssay AID1919003 (Molecular Pharmacology Branch, DTP, NCI, 2023)
